The results in this text go back to US8883782B2, “Spiro-tetracyclic ring compounds as beta-secretase modulators and methods of use” (Amgen Inc., priority 2010, dated 2014).

In test [1] the target is Beta Secretase enzyme (BACE) (Homo sapiens, UniProt P56817). The test is described as follows: In vitro enzymatic BACE FRET (fluorescence resonance energy transfer) assay. It counts as biochemical. The conditions noted are these: average IC50, enzyme assay; read-out: BACE 1 FRET assay. Put shortly: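 Fluorescence read after Tris quench to neutral pH. Reaction: 50 nM fluorophore/quencher peptide substrate, 1 h, in 0.05 M acetate pH 4.2, 10% DMSO final, 100 uM genapol.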
Chain of Beta Secretase enzyme (BACE) (P56817 46-501, species assumed): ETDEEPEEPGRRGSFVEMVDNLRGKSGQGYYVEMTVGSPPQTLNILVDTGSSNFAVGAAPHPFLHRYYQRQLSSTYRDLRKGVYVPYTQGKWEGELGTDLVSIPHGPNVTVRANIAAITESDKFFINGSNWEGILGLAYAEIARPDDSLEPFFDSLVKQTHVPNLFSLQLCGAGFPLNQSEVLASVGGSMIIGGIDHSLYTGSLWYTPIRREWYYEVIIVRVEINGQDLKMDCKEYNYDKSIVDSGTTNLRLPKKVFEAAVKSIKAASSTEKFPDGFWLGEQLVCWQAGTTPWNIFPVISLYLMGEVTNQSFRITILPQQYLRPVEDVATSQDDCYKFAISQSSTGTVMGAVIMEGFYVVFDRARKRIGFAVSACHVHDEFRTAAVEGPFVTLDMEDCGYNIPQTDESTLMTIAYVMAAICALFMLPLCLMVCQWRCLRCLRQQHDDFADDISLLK

Test [2] relates to Aβ40 in conditioned medium of cells stably expressing Amyloid Precursor Protein (APP). The test is described as follows: In vitro BACE cell-based assay (Aβ40 in conditioned medium, sandwich ELISA). Conditions: read-out: HEK cell assay. Put shortly:
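Conditioned medium from stably APP-expressing cells treated with compound dose series is assayed for Aβ40 by sandwich ELISA with time-resolved fluorescence detection. IC50 is calculated from percent inhibition of Aβ40 against compound concentration.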
In general terms: ELISA stands for enzyme-linked immunosorbent assay.

Setting [3] is: Homo sapiens, HEK293, average IC50, HEK cells.

SMILES strings stand for the structures. Like-named read-outs stand apart in the source and are kept apart here.

`CC1(COc2cc(F)c3c(c2)[C@]2(CSC(N)=N2)c2cc(-c4cccnc4F)c(F)cc2O3)COC1` [Example 885, (4S)-3′,5′-difluoro-2′-(2-fluoro-3-pyridinyl)-7′-((3-methyl-3-oxetanyl)methoxy)spiro[1,3-thiazole-4,9′-xanthen]-2-amine]: the figures for the IC50 in test [1] and in test [2] (setting [3]) were 0.4 nM and 5 nM, respectively.

As to `CC1(COc2cc(F)c3c(c2)[C@@]2(CSC(N)=N2)c2cc(-c4cccnc4F)c(F)cc2O3)COC1` [Example 886, (4R)-3′,5′-difluoro-2′-(2-fluoro-3-pyridinyl)-7′-((3-methyl-3-oxetanyl)methoxy)spiro[1,3-thiazole-4,9′-xanthen]-2-amine], the figures for the IC50 in test [1] and in test [2] (setting [3]) were 475 nM and no less than 10000 nM, respectively.

As to `NC1=N[C@]2(CS1)c1cc(-c3cncnc3)c(F)cc1Oc1c(F)cc(N3CCOCC3)cc12` [Example 887, (4R)-3′,5′-difluoro-7′-(4-morpholinyl)-2′-(5-pyrimidinyl)spiro[1,3-thiazole-4,9′-xanthen]-2-amine], the IC50 in test [1] is 4740 nM; in test [2] (setting [3]), no less than 10000 nM.

As for `NC1=N[C@@]2(CS1)c1cc(-c3cncnc3)c(F)cc1Oc1c(F)cc(N3CCOCC3)cc12` [Example 888, (4S)-3′,5′-difluoro-7′-(4-morpholinyl)-2′-(5-pyrimidinyl)spiro[1,3-thiazole-4,9′-xanthen]-2-amine], the IC50 is 2.1 nM in test [1] and 10 nM in test [2] (setting [3]).

Turning to `CN(C)c1cc2c(cn1)Oc1ccc(-c3cccnc3)cc1C21CSC(N)=N1` [Example 889, (5R)-N~3~,N~3~-dimethyl-7-(3-pyridinyl)spiro[chromeno[2,3-c]pyridine-5,4′-[1,3]thiazole]-2′,3-diamine, (5S)-N~3~,N~3~-dimethyl-7-(3-pyridinyl)spiro[chromeno[2,3-c]pyridine-5,4′-[1,3]thiazole]-2′,3-diamine], the IC50 in test [1] worked out at 19.9 nM; in test [2] (setting [3]) it was 540 nM.

Consider `NC1=N[C@@]2(CO1)c1cc(-c3cccnc3F)ccc1Oc1cnc(N3C[C@@H]4C[C@H]3CO4)cc12` [Example 891, (5S)-7-(2-fluoro-3-pyridinyl)-3-((1S,4S)-2-oxa-5-azabicyclo[2.2.1]hept-5-yl)spiro[chromeno[2,3-c]pyridine-5,4′-[1,3]oxazol]-2′-amine], for which the IC50 was found to be 1.9 nM in test [1] and 61 nM in test [2] (setting [3]).

Turning to `NC1=N[C@@]2(CO1)c1cc(-c3cccnc3F)ccc1Oc1c2cc(N2CCOCC2)nc1F` [Example 892, (5S)-1-fluoro-7-(2-fluoro-3-pyridinyl)-3-(4-morpholinyl)spiro[chromeno[2,3-c]pyridine-5,4′-[1,3]oxazol]-2′-amine], the IC50 amounted to 0.3 nM in test [1] and 5 nM in test [2] (setting [3]).

As to `N#Cc1cccc(-c2ccc3c(c2)[C@@]2(COC(N)=N2)c2cc(N4CCOCC4)ncc2O3)c1` [Example 895, 3-((5S)-2′-amino-3-(4-morpholinyl)spiro[chromeno[2,3-c]pyridine-5,4′-[1,3]oxazol]-7-yl)benzonitrile], the IC50 is 2.4 nM in test [1] and 8 nM in test [2] (setting [3]).

Regarding `NC1=N[C@@]2(CO1)c1cc(-c3cccnc3F)c(F)cc1Oc1ncc(-c3ccc(F)nc3)cc12` [Example 896, (5S)-8-fluoro-7-(2-fluoro-3-pyridinyl)-3-(6-fluoro-3-pyridinyl)spiro[chromeno[2,3-b]pyridine-5,4′-[1,3]oxazol]-2′-amine], the figures for the IC50 in test [1] and in test [2] (setting [3]) were 2.4 nM and 74 nM, respectively.

Consider `NC1=N[C@]2(CO1)c1cc(-c3cccnc3F)c(F)cc1Oc1ncc(-c3ccc(F)nc3)cc12` [Example 897, (5R)-8-fluoro-7-(2-fluoro-3-pyridinyl)-3-(6-fluoro-3-pyridinyl)spiro[chromeno[2,3-b]pyridine-5,4′-[1,3]oxazol]-2′-amine], for which the IC50 amounted to 175 nM in test [1] and 6360 nM in test [2] (setting [3]).

In the case of `NC1=N[C@@]2(CO1)c1cc(-c3cccnc3F)ccc1Oc1nc(F)c(I)cc12` [Example 898, (5S)-2-fluoro-7-(2-fluoro-3-pyridinyl)-3-iodospiro[chromeno[2,3-b]pyridine-5,4′-[1,3]oxazol]-2′-amine], the IC50 was 10600 nM in test [1] and no less than 10000 nM in test [2] (setting [3]).

Consider `NC1=N[C@]2(CO1)c1cc(-c3cccnc3F)ccc1Oc1nc(F)c(I)cc12` [Example 899, (5R)-2-fluoro-7-(2-fluoro-3-pyridinyl)-3-iodospiro[chromeno[2,3-b]pyridine-5,4′-[1,3]oxazol]-2′-amine], for which the IC50 in test [1] is 40000 nM; in test [2] (setting [3]) it was no less than 10000 nM.

Consider `CC1(C#Cc2cc3c(nc2F)Oc2ccc(-c4cccnc4F)cc2[C@]32COC(N)=N2)COC1` [Example 900, (5R)-2-fluoro-7-(2-fluoro-3-pyridinyl)-3-((3-methyl-3-oxetanyl)ethynyl)spiro[chromeno[2,3-b]pyridine-5,4′-[1,3]oxazol]-2′-amine], for which the IC50 in test [1] came out at 48.1 nM; in test [2] (setting [3]), 1160 nM.

Consider `NC1=N[C@]2(CO1)c1cc(-c3cccnc3F)ccc1Oc1nc(F)c(C3=CCCOC3)cc12` [Example 902, (5R)-3-(5,6-dihydro-2H-pyran-3-yl)-2-fluoro-7-(2-fluoro-3-pyridinyl)spiro[chromeno[2,3-b]pyridine-5,4′-[1,3]oxazol]-2′-amine], for which the IC50 in test [1] came out at 137 nM; in test [2] (setting [3]), 3220 nM.

`NC1=N[C@@]2(CO1)c1cc(-c3cccnc3F)ccc1Oc1nc(F)c(C3=CCCOC3)cc12` [Example 903, (5S)-3-(5,6-dihydro-2H-pyran-3-yl)-2-fluoro-7-(2-fluoro-3-pyridinyl)spiro[chromeno[2,3-b]pyridine-5,4′-[1,3]oxazol]-2′-amine]: the IC50 turned out to be 1.4 nM in test [1] and 49 nM in test [2] (setting [3]).

Regarding `NC1=N[C@]2(CO1)c1cc(-c3cccnc3F)ccc1Oc1nc(F)c(N3CCOCC3)cc12` [Example 904, (5R)-2-fluoro-7-(2-fluoro-3-pyridinyl)-3-(4-morpholinyl)spiro[chromeno[2,3-b]pyridine-5,4′-[1,3]oxazol]-2′-amine], the IC50 in test [1] is 269 nM; in test [2] (setting [3]), no less than 10000 nM.

`CC1(C#Cc2cc3c(nc2F)Oc2ccc(-c4ccc(F)nc4)cc2[C@]32COC(N)=N2)COC1` [Example 905, (5R)-2-fluoro-7-(6-fluoro-3-pyridinyl)-3-((3-methyl-3-oxetanyl)ethynyl)spiro[chromeno[2,3-b]pyridine-5,4′-[1,3]oxazol]-2′-amine]: the figures for the IC50 in test [1] and in test [2] (setting [3]) were 126 nM and 3110 nM, respectively.

For the compound `CC1(C#Cc2cc3c(nc2F)Oc2ccc(-c4cncc(F)c4)cc2[C@]32COC(N)=N2)COC1` [Example 906, (5R)-2-fluoro-7-(5-fluoro-3-pyridinyl)-3-((3-methyl-3-oxetanyl)ethynyl)spiro[chromeno[2,3-b]pyridine-5,4′-[1,3]oxazol]-2′-amine], the IC50 is 54.2 nM in test [1] and 1490 nM in test [2] (setting [3]).

As to `CC1(C#Cc2cc3c(nc2F)Oc2ccc(-c4cncc(F)c4)cc2[C@@]32COC(N)=N2)COC1` [Example 907, (5S)-2-fluoro-7-(5-fluoro-3-pyridinyl)-3-((3-methyl-3-oxetanyl)ethynyl)spiro[chromeno[2,3-b]pyridine-5,4′-[1,3]oxazol]-2′-amine], the figures for the IC50 in test [1] and in test [2] (setting [3]) were 1.1 nM and 23 nM, respectively.

In the case of `CC(C)(C)COc1ccc2c(c1)[C@]1(COC(N)=N1)c1cc(C3=CCCOC3)ccc1O2` [Example 910, (4S)-2′-(5,6-dihydro-2H-pyran-3-yl)-7′-(2,2-dimethylpropoxy)spiro[1,3-oxazole-4,9′-xanthen]-2-amine], the IC50 in test [1] amounted to 22.3 nM; in test [2] (setting [3]), 1770 nM.

In the case of `CC(C)(C)COc1ccc2c(c1)C1(COC(N)=N1)c1cc(C3CCCOC3)ccc1O2` [Example 911, (4S)-2′-(2,2-dimethylpropoxy)-7′-((3R)-tetrahydro-2H-pyran-3-yl)spiro[1,3-oxazole-4,9′-xanthen]-2-amine, (4S)-2′-(2,2-dimethylpropoxy)-7′-((3S)-tetrahydro-2H-pyran-3-yl)spiro[1,3-oxazole-4,9′-xanthen]-2-amine], the IC50 in test [1] stood at 19.2 nM; in test [2] (setting [3]), 1290 nM.

As for `NC1=N[C@@]2(CO1)c1cc(-c3c(F)ccnc3F)ccc1Oc1cnc([C@@H]3CCCOC3)cc12` [Example 912, (5S)-7-(2,4-difluoro-3-pyridinyl)-3-((3S)-tetrahydro-2H-pyran-3-yl)spiro[chromeno[2,3-c]pyridine-5,4′-[1,3]oxazol]-2′-amine], the IC50 was 25.1 nM in test [1] and 338 nM in test [2] (setting [3]).

Take `NC1=N[C@@]2(CO1)c1cc(-c3c(F)ccnc3F)ccc1Oc1cnc([C@H]3CCCOC3)cc12` [Example 913, (5S)-7-(2,4-difluoro-3-pyridinyl)-3-((3R)-tetrahydro-2H-pyran-3-yl)spiro[chromeno[2,3-c]pyridine-5,4′-[1,3]oxazol]-2′-amine]: the figures for the IC50 in test [1] and in test [2] (setting [3]) were 16.1 nM and 211 nM, respectively.

Take `NC1=N[C@@]2(CO1)c1cc(-c3c(F)ccnc3F)ccc1Oc1cnc([C@H]3CCCCO3)cc12` [Example 914, (5S)-7-(2,4-difluoro-3-pyridinyl)-3-((2R)-tetrahydro-2H-pyran-2-yl)spiro[chromeno[2,3-c]pyridine-5,4′-[1,3]oxazol]-2′-amine]: the IC50 in test [1] came to 13.5 nM; in test [2] (average IC50, HEK cells) it was 102 nM.

Consider `NC1=N[C@@]2(CO1)c1cc(-c3c(F)ccnc3F)ccc1Oc1cnc([C@@H]3CCCCO3)cc12` [Example 915, (5S)-7-(2,4-difluoro-3-pyridinyl)-3-((2S)-tetrahydro-2H-pyran-2-yl)spiro[chromeno[2,3-c]pyridine-5,4′-[1,3]oxazol]-2′-amine], for which the IC50 in test [1] turned out to be 2.5 nM; in test [2] (setting [3]), 23 nM.

With `NC1=N[C@@]2(CO1)c1cc(-c3cccnc3F)ccc1Oc1c2cc(N2CC[C@H](F)C2)nc1F` [Example 917, (5S)-1-fluoro-7-(2-fluoro-3-pyridinyl)-3-((3S)-3-fluoro-1-pyrrolidinyl)spiro[chromeno[2,3-c]pyridine-5,4′-[1,3]oxazol]-2′-amine], the figures for the IC50 in test [1] and in test [2] (setting [3]) were 0.3 nM and 5 nM, respectively.
